Patent publication US9266939B2, “Compositions comprising natriuretic peptides and methods of use thereof” (Alexion Pharmaceuticals, Inc., priority 2010, dated 2016)
Marks after values point to notes of the source that are not given here.

Tested on: Fgfr3^369/+ mice
Assay: Efficacy of SC NC2st on rescue of the ACH bone phenotype in Fgfr3^369/+ mice
Type: in vivo
Conditions: 61 days
Text: The study was designed to evaluate the effect of daily subcutaneous (SC) administration of NC2 Streptag (NC2st) on rescue of the achondroplasia skeletal disorders in the mouse model of the disease, the Fgfr3^369/+ mice.
Fgfr3^369/+ mice were created by an amino acid substitution (Gly to Cys) at position 369 in the mouse Fibroblast Growth Factor Receptor 3 (Fgfr3) gene (Chen et al., J. Clin. Invest. 104(11): 1517-1525, 1999). Substitution 369 (Gly369Cys) in mouse Fgfr3 gene causes dwarfism with features mimicking human achondroplasia. […] Thus, the Fgfr3^369+ mouse is an appropriate model for non-clinical studies evaluating the treatment of achondroplasia.
The study was an open label parallel and randomized control study. Treatments were open label, and Table 5 provides details of the treatment groups.
Injections were scheduled twice daily at approximately 8:00 to 10:00 AM and 8:00 to 10:00 PM. The dose volume was set at 4 ml/kg. The actual volume administered to each mouse was calculated and adjusted based on the daily body weight of each animal measured prior to the AM injection. Vehicle or NC2st was injected SC twice daily into the scapular or lumbar region of Fgfr3^369/+ animals from the third day after birth to 63 days of age.
Ex vivo radiographs of whole body, rib cage and skull were taken using a Faxitron model MX-20 DC4 under constant conditions (26 kV, 10 sec at 1×, 3× and 3× magnification, respectively). Bone measurements were performed on the radiographic images of all animals in a blinded fashion using the software Image Processing and Analysis in Java (ImageJ).
Bone samples were cleaned of excess tissue (not scraped) and fixed. Length of femur and tibia was measured using a caliper.

[1] = Tx-100: 100 mg/kg SC twice daily

NC2st: Fc-CNP fusion: Strep-tag II, TEV site, human IgG-1 Fc, 16-amino acid glycine-rich linker, CNP22; SEQ ID NO: 502
Cervical vertebrae length, % change vs Vehicle (Tx-10: 10 mg/kg SC twice daily): +17.6%* | Femur length, % change vs Vehicle (Tx-10: 10 mg/kg SC twice daily): +3.85%* | Lumbar vertebrae length, % change vs Vehicle (Tx-10: 10 mg/kg SC twice daily): +8.64%* | Naso-anal length, % change vs Vehicle (Tx-10: 10 mg/kg SC twice daily): +8.99%* | Neck-anal length, % change vs Vehicle (Tx-10: 10 mg/kg SC twice daily): +12.4%* | Occipital-front distance, % change vs Vehicle (Tx-10: 10 mg/kg SC twice daily): +0.89% | Skull Circularity index, % change vs Vehicle (Tx-10: 10 mg/kg SC twice daily): −1.52% | Sternum length, % change vs Vehicle (Tx-10: 10 mg/kg SC twice daily): +6.67%* | Tail length, % change vs Vehicle (Tx-10: 10 mg/kg SC twice daily): +7.38%* | Thoracic vertebrae length, % change vs Vehicle (Tx-10: 10 mg/kg SC twice daily): +11.6%* | Tibia length, % change vs Vehicle (Tx-10: 10 mg/kg SC twice daily): +6.50%* | Total CTL vertebrae length, % change vs Vehicle (Tx-10: 10 mg/kg SC twice daily): +11.6%* | Cervical vertebrae length, % change vs Vehicle [1]: +24.3%* | Femur length, % change vs Vehicle [1]: +3.85%* | Lumbar vertebrae length, % change vs Vehicle [1]: +13.6%* | Naso-anal length, % change vs Vehicle [1]: +14.3%* | Neck-anal length, % change vs Vehicle [1]: +21.1%* | Occipital-front distance, % change vs Vehicle [1]: +0.76% | Skull Circularity index, % change vs Vehicle [1]: −2.88%* | Sternum length, % change vs Vehicle [1]: +13.7%* | Tail length, % change vs Vehicle [1]: +7.22%* | Thoracic vertebrae length, % change vs Vehicle [1]: +25.3%* | Tibia length, % change vs Vehicle [1]: +8.13%* | Total CTL vertebrae length, % change vs Vehicle [1]: +20.9%*
